# Measurements reported in patent publication US11123408B2, “Compositions and methods for treating nonsteroidal anti-inflammatory drug (NSAID) associated coagulopathy, thrombocytopenia, glanzmann's thrombasthenia, and/or thrombosis” (YALE UNIVERSITY, priority 2011, dated 2021).
# Entries after “also recorded” stand apart in the source; their conditions may differ.
# B1: NPP4-T70A: inactive mutant NPP4 extracellular domain, catalytic threonine 70 mutated to alanine (protein, UniProt Q9Y6X5 16-407, looked up, variant T70A)
# extracellular domain: FRSDSSSSLPPKLLLVSFDGFRADYLKNYEFPHLQNFIKEGVLVEHVKNVFITKAFPNHYSIVTGLYEESHGIVANSMYDAVTKKHFSDSNDKDPFWWNEAVPIWVTNQLQENRSSAAAMWPGTDVPIHDTISSYFMNYNSSVSFEERLNNITMWLNNSNPPVTFATLYWEEPDASGHKYGPEDKENMSRVLKKIDDLIGDLVQRLKMLGLWENLNVIITSDHGMTQCSQDRLINLDSCIDHSYYTLIDLSPVAAILPKINRTEVYNKLKNCSPHMNVYLKEDIPNRFYYQHNDRIQPIILVADEGWTIVLNESSQKLGDHGYDNSLPSMHPFLAAHGPAFHKGYKHSTINIVDIYPMMCHILGLKPHPNNGTFGHTKCLLVDQWCINLPEA
# modifications: extracellular domain
# Tests used:
# [1] = tested on: platelets in platelet rich plasma; test: Lumi aggregometry (extracellular ATP, dense granule release) simultaneously with LTA; assay type: cell-based, human
# Protocol: (§1) Whole blood from healthy voluntary donors was collected in accordance with an IRB-approved protocol into blue top vacutainer tubes containing 3.2% sodium citrate. Blood was centrifuged at 1000 RPM for 10 minutes at room temperature to collect platelet rich plasma (PRP). PRP in the supernatant was then transferred to fresh tubes, and the remainder of the specimen was centrifuged at 4000 RPM for 10 minutes to obtain platelet poor plasma (PPP). PRP was adjusted to a final platelet count of 250×10^6 platelets/mL with autologous PPP for use in aggregation studies. Potential donors were excluded if there was a history of a bleeding disorder or current anticoagulant use and donors were instructed to avoid NSAIDs for at least 7 days prior to donation. Approval for the human subjects involved in this research was sought and granted by the Committee for the Protection of Human Subjects, Dartmouth-Hitchcock Medical Center, where these studies were conducted in accordance with the Declaration of Helsinki.
# (§2) Light transmission (i.e., optical) and lumi aggregometry were performed on up to four samples from the same individual simultaneously with a Chrono-Log Model 700 Whole Blood/Optical Lumi Aggregometer (Chrono-Log Corporation, Havertown, Pa.) using procedures provided by the manufacturer that are briefly summarized here.
# (§3) Platelet aggregation was determined by measuring the change in light transmittance of stirred PRP over time after addition of various agonists. Prior to each experiment the aggregometer was standardized to reflect 100% and 0% light transmittance with PPP and PRP, respectively, from the donor whose platelets were used in each specific experiment. 500 μL PRP was added to cuvettes containing a magnetic stir bar and allowed to pre-warm to 37° C. in the aggregometer wells for 3 minutes prior to initiating aggregation reactions which were then conducted at 37° C. Aggregation reactions were initiated by direct addition of agonists and/or enzymes to warmed, stirred PRP, and were monitored for an increase in light transmittance for 10 minutes. The increase in light transmittance is directly proportional to the amount of aggregation and is amplified and digitized into a computer (HP Compaq, Hewlett-Packard, Palo Alto, Calif.) with the AGGRO/LINK8 for Windows software (Chrono-Log Corporation, Havertown, Pa.) to generate aggregation curves. […] The platelet aggregometry experiments for all concentrations of MRS 2395 (including the 0 μM point) were conducted with the plasma adjusted to a final concentration of 10% DMSO to solubilize the inhibitor.
# In a subgroup of experiments, lumi aggregometry was used to assay the levels of extracellular ATP simultaneously with LTA. Lumi aggregometry measures ATP in the extracellular space over time using a sensitive luminescent assay employing firefly luciferin-luciferase (CHRONO-LUME™ reagent, Chrono-Log Corporation, Havertown, Pa.). ATP binds to luciferin-luciferase and generates light that is then amplified by a high-gain photomultiplier tube in the lumi aggregometer and is measured simultaneously with the optical change in light transmittance caused by platelet aggregation. In experiments in which lumi aggregometry was performed, 450 μL of PRP was transferred to cuvettes containing magnetic stir bars and allowed to pre-warm to 37° C. in the aggregometer wells for 3 minutes. […] Reactions were initiated by the addition of agonists and/or enzymes to warmed PRP and CHRONOLUME′ reagent and were monitored for light generation. […]
# [2] = tested on: platelets in platelet rich plasma; test: Light transmission aggregometry (LTA) in platelet rich plasma; assay type: cell-based, human; details: for inhibition of NPP4/Ap3A-promoted platelet aggregation (qualitative): increasing antagonist concentrations; for platelet aggregation response of enzyme in the presence of 80 μM Ap3A (qualitative): enzyme 50-200 nM
# Protocol: as §1, §2, §3
# [3] = Diadenosine polyphosphate cleavage (linked assay, HPLC, absorbance); assay type: biochemical; details: HPLC or absorbance / real time spectrophotometric assay
# Protocol: NPP4 nucleotide substrates were identified by directly detecting the free phosphate (Pi) product using malachite green (ADP substrate) or by a linked hydrolysis assay with alkaline phosphatase combined with malachite green (lipid substrates and nucleotide substrates without terminal P1) to measure released Pi. 50 μM substrate P1 equivalents (e.g. 25 μM ADP) were treated with 50 nM NPP4 for 1 hr 37 min (lipids) or 3 hr 15 min (all other substrates). For substrates without terminal phosphates, 10 units of calf intestinal alkaline phosphatase (M0290S, 10,000 units/mL, New England Biolabs, Ipswich, Mass.) was added for a final reaction volume of 50 μL. […] The amount of phosphate released was measured by absorbance at 620 nm by a Biotek Synergy Mx plate reader (Winooski, Vt.) in 96-well plates (3679, Corning Inc., Corning, N.Y.) and compared against a phosphate standard curve.
# The kinetics of the steady state Ap3A/Ap4A cleavage by NPP4 was measured from time courses of absorbance change at 259 nm using a UV spectrophotometer with a 0.1 cm optical path length cuvette or a stopped-flow device with a 0.2 cm optical path length cell. […] The substrate concentrations higher than 800 μM have absorption too high to be measured by a UV spectrophotometer and stopped-flow, and were therefore measured by HPLC. […]
# [4] = Ap3A hydrolysis by NPP enzymes (linked malachite green assay, absorbance change at 259 nm, HPLC); assay type: biochemical; details: linked assay or steady state enzymatic studies
# Protocol: NPP4 nucleotide substrates were identified by directly detecting the free phosphate (Pi) product using malachite green (ADP substrate) or by a linked hydrolysis assay with alkaline phosphatase combined with malachite green (lipid substrates and nucleotide substrates without terminal P1) to measure released Pi. 50 μM substrate P1 equivalents (e.g. 25 μM ADP) were treated with 50 nM NPP4 for 1 hr 37 min (lipids) or 3 hr 15 min (all other substrates). For substrates without terminal phosphates, 10 units of calf intestinal alkaline phosphatase (M0290S, 10,000 units/mL, New England Biolabs, Ipswich, Mass.) was added for a final reaction volume of 50 μL. 100 μL of malachite green (BIOMOL GREEN™, Enzo Life Sciences, Plymouth Meeting, Pa.) was added to quench the reactions. The amount of phosphate released was measured by absorbance at 620 nm by a Biotek Synergy Mx plate reader (Winooski, Vt.) in 96-well plates (3679, Corning Inc., Corning, N.Y.) and compared against a phosphate standard curve.
# The kinetics of the steady state Ap3A/Ap4A cleavage by NPP4 was measured from time courses of absorbance change at 259 nm using a UV spectrophotometer with a 0.1 cm optical path length cuvette or a stopped-flow device with a 0.2 cm optical path length cell. The enzymology reactions in 50 mM Tris pH 8.0, 140 mM NaCl, 5 mM KCl, 1 mM MgCl2 and 1 mM CaCl2 were started by addition of 1 μM NPP4 to varying concentrations of Ap3A/Ap4A (up to 800 μM) solution (UV spectrophotometer) or by rapid mixing of NPP4 and Ap3A/Ap4A (stopped-flow). The substrate concentrations higher than 800 μM have absorption too high to be measured by a UV spectrophotometer and stopped-flow, and were therefore measured by HPLC. […] Therefore, the rate of a product production or enzyme turnover measured by the absorption change assay can be calculated by the rate of absorption change
# [formula] according to the following formula;
# [formula] where Δl is optical path length. The following absorption coefficients were used: Ap3A: 25.75 mM^−1 cm^−1. Ap4A: 25.4 mM^−1 cm^−1. AMP, ADP, and ATP: 15.4 mM^−1 cm^−1. ADP Receptor Inhibitor Assay for NPP4 Inhibition
# The HPLC protocol used to measure Ap3A/Ap4A cleavage by NPP4 and for product identification is modified from that of Stocchi et al. (1985, Anal Biochem 146:118-24). The reactions containing varying concentrations of Ap3A/Ap4A in the same buffer as in the absorbance change assay were started by addition of 0.2-1 μM NPP4 and quenched at various time points by equal volume of 3 M formic acid, or 0.5 N KOH and re-acidified by glacial acetic acid to pH 6. The quenched reaction solution was diluted systematically and loaded a HPLC system (Waters, Milford Mass.) and substrates and products were monitored by UV absorbance at 254 or 259 nm. Substrates and products were separated on a C18, 5 μm 250×4.6 mm HPLC column (Higgins Analytical, Mountain View, Calif.), using 15 mM ammonium acetate pH 6.0 solution, with a 0% to 10% (or 20%) methanol gradient. The products and substrate were quantified according to the integration of their correspondent peaks and the formula:
# [formula] where [substrate]0 is the initial substrate concentration. The extinction coefficients of Ap3A, Ap4A, AMP, ADP and ATP used in the formula were the same as those used in absorption change assay. If monitoring at 254 nm, substrate and product standards run on the same day as the reactions were used to convert integrated product/substrate peak areas to concentrations. […]
molecule,measurement,setting,value
Nc1ncnc2c1ncn2[C@@H]1O[C@H](COP(=O)(O)OP(=O)(O)OP(=O)(O)OP(=O)(O)OC[C@H]2O[C@@H](n3cnc4c(N)ncnc43)[C@H](O)[C@@H]2O)[C@@H](O)[C@H]1O [Ap4A],"platelet aggregation and granule release, Ap4A with NPP4 (qualitative)",[1]; 40 μM Ap4A with 100 nM NPP4,no measurable platelet aggregation; also recorded: no platelet aggregation and no granule release
same,effect of Ap4A on Ap3A/NPP4-induced platelet aggregation,[2]; 80 μM Ap4A added to 100 nM NPP4 and 80 μM Ap3A,roughly half of the aggregation; also recorded: intermediate degree of platelet aggregation
same,platelet aggregation response to Ap4A (qualitative),[2]; 80 μM Ap4A alone or in the presence of 100 nM NPP4,no apparent positive effect on aggregation; also recorded: does not trigger even a primary wave of aggregation
CNc1ncnc2c1ncn2[C@H]1C[C@H](OP(=O)(O)O)[C@@H](COP(=O)(O)O)O1 [MRS 2179],inhibition of NPP4/Ap3A-promoted platelet aggregation (qualitative),"[2]; 50 nM NPP4, 80 μM Ap3A",concentration-dependent inhibition of platelet aggregation; also recorded: dose-dependent inhibition of the platelet aggregation response
CNc1nc(Cl)nc2c1ncn2CC(COC(=O)C(C)(C)C)COC(=O)C(C)(C)C [MRS 2395],inhibition of NPP4/Ap3A-promoted platelet aggregation (qualitative),"[2]; 50 nM NPP4, 80 μM Ap3A",concentration-dependent inhibition of platelet aggregation; also recorded: dose-dependent inhibition of the platelet aggregation response
same,inhibition of NPP4/Ap3A-promoted platelet aggregation at 200 μM,"[2]; 200 μM antagonist, 50 nM NPP4, 80 μM Ap3A, 10% DMSO",complete inhibition
diadenosine triphosphate [Ap3A],"platelet aggregation and luminescence, Ap3A alone (qualitative)",[1]; 40 μM Ap3A alone in PRP,"primary wave of aggregation, followed by rapid disaggregation"
same,platelet aggregation response to Ap3A in the presence of 100 nM NPP4 (qualitative),"[2]; 100 nM NPP4, dose response of Ap3A",induces both the primary and secondary waves of aggregation in a concentration-dependent fashion; also recorded: robust platelet aggregation
same,maximum aggregation,[2]; 40 μM Ap3A in the presence of 100 nM NPP4,70%
same,maximum aggregation,[2]; Ap3A 80 μM or higher in the presence of 100 nM NPP4,greater than 80%
same,"platelet aggregation response, agent alone (qualitative)",[2]; agent alone in PRP (Ap3A up to 160 μM; NPP4 100 nM),"triggers a primary wave of aggregation without degranulation, followed by rapid disaggregation; also recorded: only a primary wave of aggregation followed by rapid platelet disaggregation; also recorded: triggers a primary wave of aggregation, which is followed by rapid disaggregation"
B1,diadenosine polyphosphate cleavage (qualitative),[3],did not cleave diadenosine polyphosphates
same,"platelet aggregation and dense granule (ATP) release, enzyme with Ap3A (qualitative)",[1]; 100 nM enzyme with 40 μM Ap3A,A similar pattern is observed
same,Ap3A cleavage / hydrolysis (qualitative),[4],incapable of Ap3A hydrolysis
same,platelet aggregation response of enzyme in the presence of 80 μM Ap3A (qualitative),[2],fails to induce aggregation
same,platelet aggregation response of enzyme in the presence of 80 μM Ap3A (qualitative),[2]; listed as T70A mutant of NPP4,no effect on platelet aggregation
